This note sets out measurements from US9593136B2 (priority 2011, dated 2017).

Structures are written as SMILES. pIC50: −log10 of the molar value. ≈ marks a conversion by molar mass, not a printed value. Where two headings read alike, the source gives them in different places.

In one test the target is M. tuberculosis Dxr (Mycobacterium tuberculosis, UniProt P9WNS1). Kind of test: biochemical. The settings on record: for IC50: IC50 (μM); for pIC50: Mtb Dxr IC50 (ug/mL).
The next test deals with Mtb H37Rv (ATCC 27294). Kind of test: microbe, parasite or virus in culture. In kind it is cell-based, Mycobacterium tuberculosis. The settings on record: for MIC: Mycobacterium tuberculosis.
The subject of another test is Acinetobacter. Kind of test: microbe, parasite or virus in culture. In kind it is cell-based.
For a further test, the system named is E. coli k12. Kind of test: microbe, parasite or virus in culture. Type of test: cell-based.
The next test concerns E. coli tolc. Kind of test: microbe, parasite or virus in culture. In kind it is cell-based.
The next test deals with B. anthracis. Kind of test: microbe, parasite or virus in culture. Type of test: cell-based, Bacillus anthracis.
Another test concerns E. faecalis. Kind of test: microbe, parasite or virus in culture. Type of test: cell-based.
The subject of another test is S. aureus (MSSA). Kind of test: microbe, parasite or virus in culture. Type of test: cell-based.
In the next test the test system is MRSA NRS 70. Put plainly: microbe, parasite or virus in culture. In kind it is cell-based, S. aureus.
[1] abbreviates: read-out: Mtb MIC (ug/mL) (7H9).
[2] abbreviates: read-out: Mtb MIC (ug/mL) (GAST).

Chain of M. tuberculosis Dxr (P9WNS1 whole entry, looked up): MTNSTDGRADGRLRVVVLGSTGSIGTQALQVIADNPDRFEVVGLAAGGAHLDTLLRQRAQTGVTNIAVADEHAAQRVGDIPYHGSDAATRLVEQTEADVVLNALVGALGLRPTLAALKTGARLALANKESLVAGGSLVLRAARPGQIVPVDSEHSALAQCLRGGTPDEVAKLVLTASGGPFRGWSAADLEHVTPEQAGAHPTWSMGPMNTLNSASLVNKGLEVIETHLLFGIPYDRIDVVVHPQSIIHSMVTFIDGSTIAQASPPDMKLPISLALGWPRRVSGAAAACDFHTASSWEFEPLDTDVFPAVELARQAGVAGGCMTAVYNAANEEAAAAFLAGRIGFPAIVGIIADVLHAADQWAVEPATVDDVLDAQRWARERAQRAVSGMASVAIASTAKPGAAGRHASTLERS

Usually IC50 stands for the midpoint of a concentration-inhibition curve. A higher IC50 goes with lower potency. Regarding `CC(=O)N(CCCP(=O)(O)O)OCCc1ccccc1` [Compound 3, Sodium hydrogen 3-(N-(phenethyloxy)acetamido)propylphosphonate], at M. tuberculosis Dxr, the concentration for half-maximal inhibition (IC50) was 96.4 µM.
For the molecule `CC(=O)N(CCCP(=O)(O)O)OCCCc1ccccc1` [Compound 4, Sodium hydrogen 3-(N-(3-phenylpropoxy)acetamido)propylphosphonate], the remaining activity at 100 µg/mL at M. tuberculosis Dxr (read-out: % Remaining Enzyme Activity at 100 μg/mL) came to 100%.
`CC(=O)N(CCCP(=O)(O)O)OCc1ccc(C(C)C)cc1` [Compound 5, Sodium hydrogen 3-(N-(4-isopropylbenzyloxy)acetamido)propylphosphonate] yielded an IC50 on M. tuberculosis Dxr of 50.6 µM.
On to `CCOP(=O)(CCN(O)C=O)OCC` [Compound 5b], for which, in the test with Mtb H37Rv (ATCC 27294), the “MIC 7H9” value is over 500 µg/mL and the “MIC GAST/Fe” value is over 500 µg/mL.
On to `CCOP(=O)(CCCN(O)C=O)OCC` [Compound 5c], for which the “MIC 7H9” value with Mtb H37Rv (ATCC 27294) stood at 250 µg/mL (≈ 1050 µM).
For `CCOP(=O)(CCN(O)C(C)=O)OCC` [Compound 5f], in the test with Mtb H37Rv (ATCC 27294), the “MIC 7H9” value was over 500 µg/mL and the “MIC GAST/Fe” value was over 500 µg/mL.
Consider `CC(=O)N(CCCP(=O)(O)O)OCC1CCCCC1` [Compound 6, Sodium hydrogen 3-(N-(cyclohexylmethoxy)acetamido)propylphosphonate], for which, at M. tuberculosis Dxr, it took 198 µM to reach half-maximal inhibition (IC50).
As to `O=C(Cc1ccccc1)N(O)CCCP(=O)(O)O` [Compound 7, Sodium hydrogen 3-(N-hydroxy-2-phenylacetamido)propylphosphonate], it took 7.5 µM to reach half-maximal inhibition at M. tuberculosis Dxr (IC50).
Molecule `O=C(CCCc1ccccc1)N(O)CCCP(=O)(O)O` [Compound 8, Sodium hydrogen 3-(N-hydroxy-4-phenylbutanamido)propylphosphonate] registered an IC50 against M. tuberculosis Dxr of 3.1 µM.
In turn, `O=C(C1CCCCC1)N(O)CCCP(=O)(O)O` [Compound 9, Sodium hydrogen 3-(N-hydroxycyclohexanecarboxamido)propylphosphonate] displayed a half-inhibitory concentration (IC50) against M. tuberculosis Dxr of 57.8 µM. Against the preceding molecule, the IC50 is about 19-fold higher.
With `CCOP(=O)(CCCN(O)C(=O)c1ccccc1)OCC` [Compound 9a], the MIC with Mtb H37Rv (ATCC 27294) (read-out: MIC 7H9 (μg/mL)) was over 500 µg/mL; with Mtb H37Rv (ATCC 27294) (read-out: MIC GAST/Fe (μg/mL)) it was 31.2 µg/mL (≈ 99.1 µM).
For `CCOP(=O)(CCCN(O)C=O)OCC` [Compound 10, Diethyl fosmidomycin], the “MIC Acinetobacter” value in the test on Acinetobacter is over 200 µg/mL. Also, in the test with E. coli k12, the “MIC E. coli k12” value was over 200 µg/mL. Further, the “MIC E. coli tolc” value against E. coli tolc was over 200 µg/mL. For the same molecule, the “MIC B. anthracis” value against B. anthracis was over 200 µg/mL. For the same molecule, in the test on E. faecalis, the “MIC E. faecalis” value is over 200 µg/mL. For the same molecule, the “MIC S. aureus (MSSA)” value with S. aureus (MSSA) was over 200 µg/mL. Besides, the “MIC S. aureus (MRSA)” value in the test with MRSA NRS 70 is over 200 µg/mL. Besides, in the test on Mtb H37Rv (ATCC 27294), the “MIC M. tuberculosis (H37Rv)” value was determined as 400 µg/mL (≈ 1670 µM).
On to `CCCCCCOP(=O)(CCCN(O)C(C)=O)OCCCCCC` [Compound 21], for which, in the test on Mtb H37Rv (ATCC 27294), the “MIC M. tuberculosis (H37Rv)” value worked out at 100 µg/mL (≈ 274 µM).
Turning to `CCOC(=O)OC(C)OP(=O)(CCCN(O)C(C)=O)OC(C)OC(=O)OCC` (stereo not drawn) [Compound 22], in the test with Acinetobacter, the “MIC Acinetobacter” value was over 200 µg/mL. Moreover, the “MIC E. coli k12” value against E. coli k12 is over 200 µg/mL. Moreover, the “MIC E. coli tolc” value against E. coli tolc worked out at 200 µg/mL (≈ 466 µM). The “MIC B. anthracis” value with B. anthracis is over 200 µg/mL. In addition, the “MIC E. faecalis” value in the test with E. faecalis is over 200 µg/mL. For the same molecule, the “MIC S. aureus (MSSA)” value in the test on S. aureus (MSSA) was over 200 µg/mL. In addition, the “MIC S. aureus (MRSA)” value in the test with MRSA NRS 70 is over 200 µg/mL. The “MIC M. tuberculosis (H37Rv)” value against Mtb H37Rv (ATCC 27294) was 400 µg/mL (≈ 932 µM).
For `CC(=O)N(O)CCCP(=O)(OCC(=O)OC(C)(C)C)OCC(=O)OC(C)(C)C` [Compound 23], the “MIC Acinetobacter” value with Acinetobacter was over 200 µg/mL. In addition, in the test with E. coli k12, the “MIC E. coli k12” value is over 200 µg/mL. In the test with E. coli tolc, the “MIC E. coli tolc” value was over 200 µg/mL. Also, the “MIC B. anthracis” value with B. anthracis was over 200 µg/mL. Further, in the test on E. faecalis, the “MIC E. faecalis” value was over 200 µg/mL. Besides, the “MIC S. aureus (MSSA)” value against S. aureus (MSSA) turned out to be 100 µg/mL (≈ 235 µM). Moreover, the “MIC S. aureus (MRSA)” value against MRSA NRS 70 turned out to be 25 µg/mL (≈ 58.8 µM). The “MIC M. tuberculosis (H37Rv)” value in the test with Mtb H37Rv (ATCC 27294) turned out to be 400 µg/mL (≈ 940 µM).
Regarding `CCOP(=O)(CCCN(O)C(=O)C1CCCCC1)OCC` [ERJ 112], the MIC was over 200 µg/mL in the test on Mtb H37Rv (ATCC 27294) (setting [1]) and 100 µg/mL (≈ 311 µM) in the test on Mtb H37Rv (ATCC 27294) (setting [2]).
In general, pIC50 refers to the negative decadic logarithm of the IC50, by convention in mol/L. Read a low pIC50 as a high IC50. In the case of `O=C(C1CCCCC1)N(O)CCCP(=O)([O-])O.[Na+]` [ERJ 116], the MIC with Mtb H37Rv (ATCC 27294) (setting [1]) and with Mtb H37Rv (ATCC 27294) (setting [2]) was over 200 µg/mL each time. This molecule gave a negative-log IC50 (pIC50) at M. tuberculosis Dxr of 4.24.
Take `CCOP(=O)(CCCN(O)C(=O)C1CC1)OCC` [ERJ 119]: in the test with Mtb H37Rv (ATCC 27294), the “Mtb MIC (ug/mL) (7H9)” value is >200 (7H9) >200 (GAST) ug/mL and the “Mtb MIC (ug/mL) (GAST)” value was >200 (7H9) >200 (GAST) ug/mL.
In the case of `O=C(C1CC1)N(O)CCCP(=O)([O-])O.[Na+]` [ERJ 123], in the test with Mtb H37Rv (ATCC 27294) (read-out: Mtb MIC (ug/mL)), the MIC is over 400 µg/mL.
In the case of `CCOP(=O)(CCCN(O)C(C)=O)OCC` [GSJ21], the “Mtb MIC” value in the test with Mtb H37Rv (ATCC 27294) is over 200 µg/mL.
With `CC(=O)N(O)CCCCP(=O)(O)O` [GSJ54], the MIC in the test with Mtb H37Rv (ATCC 27294) (read-out: Mtb MIC (ug/mL)) is over 200 µg/mL. Moreover, on M. tuberculosis Dxr, the pIC50 was 4.88.
For `CCOP(=O)(CCCN(OCc1ccc(C(C)C)cc1)C(C)=O)OCC` [GSJ70], the values for the MIC in the test on Mtb H37Rv (ATCC 27294) (setting [1]) and in the test with Mtb H37Rv (ATCC 27294) (setting [2]) were 400 µg/mL (≈ 1040 µM) and 200 µg/mL (≈ 519 µM), respectively.
The like results for `CCOP(=O)(CCCN(OCC1CCCCC1)C(C)=O)OCC` [GSJ71] were, in that order, at least 400 µg/mL and 200 to 400 µg/mL (≈ 572 to 1140 µM).
In the case of `CCOP(=O)(CCCN(OCc1ccc(-c2ccccc2)cc1)C(C)=O)OCC` [GSJ72], the MIC stood at 200 µg/mL (≈ 477 µM) with Mtb H37Rv (ATCC 27294) (setting [1]) and 100 µg/mL (≈ 238 µM) in the test with Mtb H37Rv (ATCC 27294) (setting [2]).
Take `CCOP(=O)(CCCN(OCc1ccc2ccccc2c1)C(C)=O)OCC` [GSJ73]: the MIC with Mtb H37Rv (ATCC 27294) (setting [1]) worked out at 200 µg/mL (≈ 508 µM); in the test with Mtb H37Rv (ATCC 27294) (setting [2]), 100 µg/mL (≈ 254 µM).
With `CC(=O)N(CCCP(=O)(O)O)OCc1ccc(-c2ccccc2)cc1` [GSJ74], the MIC in the test with Mtb H37Rv (ATCC 27294) (read-out: Mtb MIC (ug/mL)) lay in the range of 25 to 50 µg/mL (≈ 68.8 to 138 µM). Besides, the negative logarithm of the IC50 (pIC50) at M. tuberculosis Dxr was 4.16.
